In general, melting point refers to the temperature of the solid-liquid transition.

SMILES strings stand for the structures.

The compound `O=C(O)C(F)(F)c1ccc(-c2noc(C(F)(F)F)n2)cc1` [I-2, 2,2-difluoro-2-[4-[5-(trifluoromethyl)-1,2,4-oxadiazol-3-yl]phenyl]acetic acid] came in with a melting point of 119 to 121 °C.

The record behind these values is patent US20230142542A1, “USE OF SUBSTITUTED 1,2,4-OXADIAZOLES FOR COMBATING PHYTOPATHOGENIC FUNGI” (BASF SE, priority 2020, published 2023).
